The record followed here is US4757082A, “Method of inhibiting aromatase” (Eli Lilly and Company, priority 1984, dated 1988).

In this experiment the target is T1, aromatase (Rattus norvegicus, UniProt P22443).
T1 construct: ovarian microsomes are obtained from rats treated with pregnant mares serum gonadotropin; from tissue; host or cells: ovarian microsomes from rats treated with pregnant mares serum gonadotropin
T1 sequence (P22443 1-508): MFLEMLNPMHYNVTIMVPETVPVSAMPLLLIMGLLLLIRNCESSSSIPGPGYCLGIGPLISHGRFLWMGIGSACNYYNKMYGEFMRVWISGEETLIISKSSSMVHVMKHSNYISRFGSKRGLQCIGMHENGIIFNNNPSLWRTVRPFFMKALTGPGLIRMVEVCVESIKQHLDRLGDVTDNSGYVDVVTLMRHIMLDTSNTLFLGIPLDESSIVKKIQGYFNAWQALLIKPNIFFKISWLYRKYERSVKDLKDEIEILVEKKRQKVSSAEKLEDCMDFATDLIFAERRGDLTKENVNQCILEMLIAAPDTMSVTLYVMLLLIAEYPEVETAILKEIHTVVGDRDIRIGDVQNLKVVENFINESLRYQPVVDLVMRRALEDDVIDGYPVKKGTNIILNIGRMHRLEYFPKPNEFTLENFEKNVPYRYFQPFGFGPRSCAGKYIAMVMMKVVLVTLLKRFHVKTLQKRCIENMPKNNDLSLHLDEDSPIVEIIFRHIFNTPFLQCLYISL
Kind of experiment: Aromatase inhibition in the rat ovarian microsome assay. In kind it is biochemical. The settings on record: rat ovarian microsomes; substrate (androstenedione) concentration 0.1 μM.

Method: In this test system, ovarian microsomes are obtained from rats treated with pregnant mares serum gonadotropin. Test compounds are added to reaction vials containing 0.1 μM 4-androstene-3,17-dione, 100,000 dpm 1,2[^3 H]-androstenedione, the microsomes and a NADPH generating system. The concentrations of the inhibitors tested ranged between 0.005 and 10 μM.

In turn, `c1ccc2c(c1)CCc1ccccc1C2n1ccnc1` [1-(10,11-dihydro-5H--dibenzo-[a,d]cyclohepten-5-yl)-1H--imidazole nitrate] had an EC50 of 2000 nM.
